From patent US9205068B2 (priority 2008, dated 2015)
Values joined by “and” are separate entries in the source; they are usually repeats but may differ in a detail not shown here. Equal values may be shown once.

Tests used:
[1] = molecular target: cell-binding B subunit of CT (Vibrio cholerae serotype O1, UniProt P01556)
[2] = in vivo, po; cited from earlier work
[3] = test system: CT intoxication of CHO cells; format: cell-based
Shiga toxin = format: cell-based
CT = conditions: in vivo
[4] = molecular target: catalytic A1 polypeptide of cholera toxin (CTA1) (Vibrio cholerae serotype O1, UniProt P01555); format: binding
Chain of catalytic A1 polypeptide of cholera toxin (CTA1) (P01555 19-212 limits assumed): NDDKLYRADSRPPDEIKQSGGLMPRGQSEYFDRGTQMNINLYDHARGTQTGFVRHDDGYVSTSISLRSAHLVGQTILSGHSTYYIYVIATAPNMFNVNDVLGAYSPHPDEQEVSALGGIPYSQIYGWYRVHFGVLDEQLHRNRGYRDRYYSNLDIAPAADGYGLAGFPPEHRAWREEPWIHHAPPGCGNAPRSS

[5] = test system: CTA1 dislocation from the ER to the cytosol of HeLa cells; format: cell-based
[6] = molecular target: catalytic subunit of pertussis toxin (PTS1) (Bordetella pertussis, UniProt P04977); format: binding, B. pertussis; conditions: PTS1, 100 μM PBA
Chain of catalytic subunit of pertussis toxin (PTS1) (P04977 35-269 limits assumed): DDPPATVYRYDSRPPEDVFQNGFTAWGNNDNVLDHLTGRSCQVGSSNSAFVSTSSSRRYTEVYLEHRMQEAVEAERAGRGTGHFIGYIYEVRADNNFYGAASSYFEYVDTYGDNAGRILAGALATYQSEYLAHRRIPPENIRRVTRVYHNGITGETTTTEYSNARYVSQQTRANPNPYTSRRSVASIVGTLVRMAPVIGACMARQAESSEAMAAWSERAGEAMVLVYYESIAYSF

[7] = test system: CTA1 secretion from intoxicated HeLa cells; format: cell-based
thermolysin = thermolysin (Bacillus thermoproteolyticus, UniProt P00800); format: biochemical
Chain of thermolysin (P00800 233-548): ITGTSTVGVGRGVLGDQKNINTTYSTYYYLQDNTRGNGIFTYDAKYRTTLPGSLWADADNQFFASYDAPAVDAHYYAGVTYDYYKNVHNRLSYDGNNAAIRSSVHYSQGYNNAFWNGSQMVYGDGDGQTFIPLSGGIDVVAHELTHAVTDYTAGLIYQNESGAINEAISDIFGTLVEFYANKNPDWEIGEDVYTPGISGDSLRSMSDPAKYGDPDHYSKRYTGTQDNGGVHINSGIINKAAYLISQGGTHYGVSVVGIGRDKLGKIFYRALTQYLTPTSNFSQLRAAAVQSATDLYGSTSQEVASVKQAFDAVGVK

20S proteasome = format: biochemical
[8] = test system: forskolin-stimulated adenylate cyclase activity; format: cell-based
[9] = cited from earlier work
His6-tagged CTA1 = His6-tagged CTA1 (Vibrio cholerae serotype O1, UniProt P01555); format: binding
Chain of His6-tagged CTA1 (P01555 19-212 limits assumed): as the sequence (P01555 19-212 limits assumed) above

[10] = molecular target: interaction between GRP94 and CTA1 (Homo sapiens, UniProt P14625); format: binding
Chain of interaction between GRP94 and CTA1 (P14625 22-803 limits assumed): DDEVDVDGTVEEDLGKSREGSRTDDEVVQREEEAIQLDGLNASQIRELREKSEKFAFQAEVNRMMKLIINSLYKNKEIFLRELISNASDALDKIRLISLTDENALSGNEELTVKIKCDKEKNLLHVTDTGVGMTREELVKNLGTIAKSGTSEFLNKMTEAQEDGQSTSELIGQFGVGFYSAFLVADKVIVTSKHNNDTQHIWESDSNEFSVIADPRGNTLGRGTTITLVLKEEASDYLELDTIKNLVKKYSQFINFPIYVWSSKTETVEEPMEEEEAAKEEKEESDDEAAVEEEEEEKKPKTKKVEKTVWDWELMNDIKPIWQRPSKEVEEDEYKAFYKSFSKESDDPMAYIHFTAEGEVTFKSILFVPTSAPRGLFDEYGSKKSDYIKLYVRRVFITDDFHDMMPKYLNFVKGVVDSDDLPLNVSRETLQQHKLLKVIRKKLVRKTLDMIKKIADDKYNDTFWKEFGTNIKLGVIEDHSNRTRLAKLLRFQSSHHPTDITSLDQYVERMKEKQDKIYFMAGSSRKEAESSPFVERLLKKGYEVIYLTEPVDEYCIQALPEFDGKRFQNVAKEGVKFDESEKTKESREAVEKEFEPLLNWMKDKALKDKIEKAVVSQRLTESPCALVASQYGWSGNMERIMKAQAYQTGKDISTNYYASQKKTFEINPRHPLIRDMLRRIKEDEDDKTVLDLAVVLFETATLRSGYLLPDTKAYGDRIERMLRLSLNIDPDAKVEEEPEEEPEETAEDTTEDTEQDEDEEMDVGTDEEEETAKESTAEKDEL

Chain of cell-binding B subunit of CT (P01556 22-124 limits assumed): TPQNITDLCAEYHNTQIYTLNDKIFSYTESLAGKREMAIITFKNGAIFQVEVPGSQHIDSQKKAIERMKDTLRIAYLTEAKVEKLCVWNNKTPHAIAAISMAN

## O=C([O-])CCCc1ccccc1.[Na+] [PBA, sodium 4-phenylbutyrate]
[1]
  binding to cell-binding B subunit of CT: does not bind
[2]
  PBA serum levels: 600-1,700 uM
[3]
  CT activity against cultured cells: blocks CT activity against cultured cells in a dose-dependent manner
  concentration effective against CT intoxication of cultured cells: 10 to 100 µM
Shiga toxin
  protection against Shiga toxin: do not protect cultured cells against Shiga toxin
CT
  CT activity in the ileal loop test system: blocks CT activity in the ileal loop test system
[4]
  Melting temperature (Tm) Fluorescence: 37.5 °C and 38.5 °C and 41.0 °C
  Melting temperature (Tm) Near UV: 33.0 °C and 35.0 °C
[5]
  cytosolic pool of CTA1 by SPR: less CTA1 was found in the cytosol
[6]
  transition temperature Far UV: 33.0 °C
  transition temperature Near UV: 36.0 °C

## OCC(O)CO [glycerol]
[7]
  CTA1 secreted into medium versus untreated cells: twice as much CTA1 as the untreated control cells
thermolysin
  thermolysin-mediated proteolysis of a-casein: did not prevent the thermolysin-mediated proteolysis of a-casein
20S proteasome
  a-casein degradation by the 20S proteasome: did not inhibit a-casein degradation by the 20S proteasome
[8]
  cAMP relative to cells treated with forskolin alone: 105%
[9]
  t1/2 of equilibration across the plasma membrane: 5 min
[3]
  CT concentration for 50% maximal response: 35 ng of CT/ml
  CT intoxication (cAMP response): resistant to CT
His6-tagged CTA1
  CTA1 secondary structure Tm: 39±0.5 °C
  CTA1 tertiary structure transition temperature (Tm): 39.5±1 °C
  initial secondary structure retained at 37° C.: ~60%
  initial tertiary structure retained at 37° C.: 58%
[5]
  cytosolic pool of CTA1 by SPR: failed to generate a positive cytosolic signal for CTA1
  cytosolic pool of CTA1 by SPR, time course: could not be detected
  reduction in cytosolic CTA1: 3 fold and 5 fold
  total cellular pool of CTA1 present in the cytosolic fraction: 7±4%

## N-ethylcarboxamidoadenosine [NECA]
[10]
  effect on GRP94 binding to CTA1: blocked by both GA and NECA
[3]
  CT intoxication (cAMP response): same response to CT as the untreated cells
[5]
  cytosolic CTA1 by Western blot: unaffected by NECA treatment
  cytosolic pool of CTA1 by SPR: response comparable to the response from cells intoxicated in the absence of drug treatment

## brefeldin A [BfA]
[7]
  CTA1 in the medium by SPR: could not detect an appreciable amount of CTA1 in the medium
[5]
  cytosolic pool of CTA1 by SPR: No signal
